Experimental data as given in the supplement of paper PMC11061612.

Experiments:
[1] = tested on: NCI-H1581 (Non-Small Cell Lung Carcinoma); test: combination Emax (second highest fraction inhibited in the dose matrix, 72 h); higher = more inhibition; extreme values may be limits of the assay
Outline: (§1)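 Bliss excess equals the observed combination effect minus the expected value EA + EB − EA·EB, where EA and EB are the effects of each agent alone. Combination Emax is the second-highest inhibition within the matrix. Inhibition was scaled from CellTiter-Glo 2.0 luminescence, with 0 set by vehicle wells and 1 by blank wells, after 72 hours of two-drug dosing of cells plated in 1536-well plates.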

[2] = tested on: COR-L311 (Small Cell Lung Carcinoma); test: as above
Outline: as §1

ARH-77 (Non-Cancerous) = test: as above
Outline: as §1

A498 (Kidney Carcinoma) = test: as above
Outline: as §1

[3] = tested on: CCK-81 (Colorectal Carcinoma); test: as above
Outline: as §1

[4] = tested on: NCI-H64 (Small Cell Lung Carcinoma); test: as above
Outline: as §1

[5] = tested on: COLO-824 (Breast Carcinoma); test: as above
Outline: as §1

8-MG-BA (Glioblastoma) = test: as above
Outline: as §1

[6] = tested on: ECC10 (Gastric Carcinoma); test: as above
Outline: as §1

[7] = tested on: SK-MES-1 (Squamous Cell Lung Carcinoma); test: as above
Outline: as §1

[8] = tested on: CAL-29 (Bladder Carcinoma); test: as above
Outline: as §1

NY (Osteosarcoma) = test: as above
Outline: as §1

[9] = tested on: A549 (Lung Adenocarcinoma); test: as above
Outline: as §1

[10] = tested on: HCC1954 (Breast Carcinoma); test: as above
Outline: as §1

[11] = tested on: JSC-1 (B-Cell Non-Hodgkin's Lymphoma); test: as above
Outline: as §1

IGR-37 (Melanoma) = test: as above
Outline: as §1

Hs-445 (Non-Cancerous) = test: as above
Outline: as §1

[12] = tested on: NCI-H1693 (Lung Adenocarcinoma); test: Bliss excess, mean over the matrix (fraction); higher = more synergy
Outline: as §1

[13] = tested on: COR-L311 (Small Cell Lung Carcinoma); test: as above
Outline: as §1

[14] = tested on: NCI-H1666 (Lung Adenocarcinoma); test: as above
Outline: as §1

| SMILES | combination Emax [1] | combination Emax [2] | combination Emax (ARH-77 (Non-Cancerous)) | combination Emax (A498 (Kidney Carcinoma)) | combination Emax [3] | combination Emax [4] | combination Emax [5] | combination Emax (8-MG-BA (Glioblastoma)) | combination Emax [6] | combination Emax [7] | combination Emax [8] | combination Emax (NY (Osteosarcoma)) | combination Emax [9] | combination Emax [10] | combination Emax [11] | combination Emax (IGR-37 (Melanoma)) | combination Emax (Hs-445 (Non-Cancerous)) | Bliss excess [12] | Bliss excess [13] | Bliss excess [14] |
| --- | --- | --- | --- | --- | --- | --- | --- | --- | --- | --- | --- | --- | --- | --- | --- | --- | --- | --- | --- | --- |
| C[C@@H](c1ccc2nccn2c1)n1nnc2ncc(-c3cnn(C)c3)nc21 [Savolitinib] + CC1(C)CCC(CN2CCN(c3ccc(C(=O)NS(=O)(=O)c4ccc(NCC5CCOCC5)c([N+](=O)[O-])c4)c(Oc4cnc5[nH]ccc5c4)c3)CC2)=C(c2ccc(Cl)cc2)C1 [Venetoclax] (first compound max 1 µM, 7x7, partner max 1 µM) | 0.135 | 0.525 | 0.251 | 0.172 | 0.1 | 0.23 | 0.61 | 0.12 | 0.5 | 0.0772 | 0.0725 | 0.246 | 0.142 | 0.136 | 0.115 | 0.3 | 0.292 | -0.0639 | -0.022 | -0.0595 |
| C[C@@H](c1ccc2nccn2c1)n1nnc2ncc(-c3cnn(C)c3)nc21 [Savolitinib] + Cc1c2c(nn1C)CSCc1cc(n(C)n1)CSc1cc(c3ccccc3c1)OCCCc1c(C(=O)O)n(C)c3c-2c(Cl)ccc13 [AZD5991] (first compound max 1 µM, 7x7, partner max 1 µM) | 0.951 | 0.246 | 0.245 | 0.212 | 0.678 | 0.0956 | 0.356 | 0.595 | 0.503 | 0.228 | 0.186 | 0.442 | 0.22 | 0.85 | 1 | 0.279 | 0.211 | -0.0684 | -0.0246 | -0.0577 |
| Cn1cnc2c(F)c(Nc3ccc(Br)cc3Cl)c(C(=O)NOCCO)cc21 [Selumetinib] + C=CCn1c(=O)c2cnc(Nc3ccc(N4CCN(C)CC4)cc3)nc2n1-c1cccc(C(C)(C)O)n1 [AZD1775] (first compound max 10 µM, partner max 1 µM) | 0.639 | 0.504 | 0.979 | 0.408 | 0.885 | 0.858 | 0.76 | 0.797 | 0.774 | 0.631 | 0.654 | 0.527 | 0.779 | 0.397 | 0.945 | 0.878 | 0.689 | -0.0092 | -0.0518 | -0.0542 |
| Cn1cnc2c(F)c(Nc3ccc(Br)cc3Cl)c(C(=O)NOCCO)cc21 [Selumetinib] + CC(C)n1c(=O)n(C)c2cnc3cc(F)c(-c4ccc(OCCCN5CCCCC5)nc4)cc3c21 [AZD1390] (first compound max 10 µM, 7x7, partner max 0.3 µM) | 0.455 | 0.109 | 0.318 | 0.318 | 0.379 | 0.105 | 0.302 | 0.116 | 0.202 | 0.464 | 0.216 | 0.181 | 0.761 | 0.227 | 0.584 | 0.76 | 0.288 | -0.0814 | -0.0541 | 0.0058 |
| Cn1cnc2c(F)c(Nc3ccc(Br)cc3Cl)c(C(=O)NOCCO)cc21 [Selumetinib] + CCN(CCO)CCCOc1ccc2c(Nc3cc(CC(=O)Nc4cccc(F)c4)[nH]n3)ncnc2c1 [AZD2811] (first compound max 10 µM, 7x7, partner max 1 µM) | 0.487 | 0.733 | 0.369 | 0.383 | 0.372 | 0.516 | 0.825 | 0.286 | 0.841 | 0.511 | 0.389 | 0.247 | 0.807 | 0.29 | 0.682 | 0.774 | 0.414 | -0.0196 | -0.0546 | -0.0506 |
| Cn1cnc2c(F)c(Nc3ccc(Br)cc3Cl)c(C(=O)NOCCO)cc21 [Selumetinib] + C[C@@H]1COCCN1C2=NC(=NC(=C2)C3(CC3)[S@](=N)(=O)C)C4=C5C=CNC5=NC=C4 [AZD6738] (first compound max 10 µM, 7x7, partner max 10 µM) | 0.545 | 0.32 | 0.946 | 0.57 | 0.923 | 0.808 | 0.718 | 0.792 | 0.443 | 0.687 | 0.696 | 0.617 | 0.875 | 0.432 | 0.957 | 0.864 | 0.755 | -0.0017 | -0.056 | -0.0124 |
| CC(=O)Nc1cccc(-n2c(=O)n(C3CC3)c(=O)c3c(Nc4ccc(I)cc4F)n(C)c(=O)c(C)c32)c1 [Trametinib] + Cc1nc(-c2cn3c(n2)-c2ccc(-c4cnn(C(C)(C)C(N)=O)c4)cc2OCC3)n(C(C)C)n1 [Taselisib] (first compound max 1 µM, 7x7, partner max 10 µM) | 0.586 | 0.751 | 0.776 | 0.861 | 0.98 | 0.477 | 0.976 | 0.863 | 0.989 | 1 | 0.956 | 0.747 | 1 | 0.949 | 0.631 | 1 | 0.611 | 0.0507 | 0.0018 | 0.0857 |
| CC1(C)CCC(CN2CCN(c3ccc(C(=O)NS(=O)(=O)c4ccc(NCC5CCOCC5)c([N+](=O)[O-])c4)c(Oc4cnc5[nH]ccc5c4)c3)CC2)=C(c2ccc(Cl)cc2)C1 [Venetoclax] + C1CN(CCC1(C(=O)N[C@@H](CCO)C2=CC=C(C=C2)Cl)N)C3=NC=NC4=C3C=CN4 [Capivasertib] (first compound max 1 µM, 7x7, partner max 3 µM) | 0.0621 | 0.842 | 0.7 | 0.537 | 0.156 | 0.361 | 0.881 | 0.26 | 0.959 | 0.202 | 0.277 | 0.583 | 0.36 | 0.558 | 0.161 | 0.556 | 0.751 | -0.0333 | -0.0022 | -0.0541 |
| CC1(C)CCC(CN2CCN(c3ccc(C(=O)NS(=O)(=O)c4ccc(NCC5CCOCC5)c([N+](=O)[O-])c4)c(Oc4cnc5[nH]ccc5c4)c3)CC2)=C(c2ccc(Cl)cc2)C1 [Venetoclax] + C=CCn1c(=O)c2cnc(Nc3ccc(N4CCN(C)CC4)cc3)nc2n1-c1cccc(C(C)(C)O)n1 [AZD1775] (first compound max 1 µM, partner max 1 µM) | 0.32 | 0.808 | 0.997 | 0.452 | 0.784 | 0.942 | 0.967 | 0.755 | 0.989 | 0.565 | 0.483 | 0.741 | 0.406 | 0.364 | 0.888 | 0.852 | 0.99 | -0.0281 | -0.104 | -0.0228 |
| CC1(C)CCC(CN2CCN(c3ccc(C(=O)NS(=O)(=O)c4ccc(NCC5CCOCC5)c([N+](=O)[O-])c4)c(Oc4cnc5[nH]ccc5c4)c3)CC2)=C(c2ccc(Cl)cc2)C1 [Venetoclax] + CCN(CCO)CCCOc1ccc2c(Nc3cc(CC(=O)Nc4cccc(F)c4)[nH]n3)ncnc2c1 [AZD2811] (first compound max 1 µM, 7x7, partner max 1 µM) | 0.266 | 0.927 | 0.703 | 0.216 | 0.199 | 0.792 | 1 | 0.245 | 1 | 0.223 | 0.264 | 0.616 | 0.461 | 0.293 | 0.332 | 0.537 | 0.68 | 0.0169 | 0.0261 | 0.0171 |
| CC1(C)CCC(CN2CCN(c3ccc(C(=O)NS(=O)(=O)c4ccc(NCC5CCOCC5)c([N+](=O)[O-])c4)c(Oc4cnc5[nH]ccc5c4)c3)CC2)=C(c2ccc(Cl)cc2)C1 [Venetoclax] + CN(C)CCCOc1ccc(-c2ccc3ncc4c(c3c2)n(C2CCOCC2)c(=O)n4C)cn1 [AZD0156] (first compound max 1 µM, 7x7, partner max 1 µM) | 0.182 | 0.604 | 0.297 | 0.263 | 0.244 | 0.25 | 0.783 | 0.171 | 0.963 | 0.216 | 0.25 | 0.551 | 0.28 | 0.162 | 0.141 | 0.503 | 0.221 | -0.0123 | 0.0654 | -0.0085 |
| CC1(C)CCC(CN2CCN(c3ccc(C(=O)NS(=O)(=O)c4ccc(NCC5CCOCC5)c([N+](=O)[O-])c4)c(Oc4cnc5[nH]ccc5c4)c3)CC2)=C(c2ccc(Cl)cc2)C1 [Venetoclax] + COc1cc(Nc2ncc3c(n2)-c2ccc(Cl)cc2C(c2c(F)cccc2OC)=NC3)ccc1C(=O)O [Alisertib] (first compound max 1 µM, 7x7, partner max 10 µM) | 0.698 | 0.842 | 0.932 | 0.386 | 0.318 | 0.692 | 1 | 0.447 | 0.963 | 0.4 | 0.364 | 0.654 | 0.721 | 0.36 | 0.377 | 0.486 | 0.857 | -0.0862 | 0.0981 | -0.0713 |
